Source: ChEMBL document CHEMBL1159034, “Emodin, a protein tyrosine kinase inhibitor from Polygonum cuspidatum” (J Nat Prod, 1992)
Converted amounts (≈) assume the structure as drawn. The source made the active and inactive calls. No cut-off for these calls is given here.

Key:
[1] = Inhibition of bovine thymus p56 LCK activity; design: species or system Bos taurus
[2] = Inhibition of bovine thymus p56 LCK activity by competitive inhibition assay; design: species or system Bos taurus
Bos taurus = organism: Bos taurus; test: Inhibition of bovine thymus p56 LCK activity by noncompetitive inhibition assay

Row | Compound | IC50 [1] | Ki [2] | Activity (Bos taurus)
1 | COc1cc(O)c2c(c1)C(=O)c1cc(C)cc(O)c1C2=O [PHYSCION] | > 800 µg/mL | – | –
2 | Cc1cc(O)c2c(c1)C(=O)c1cc(O)cc(O[C@@H]3O[C@H](CO)[C@@H](O)[C@H](O)[C@H]3O)c1C2=O [EMODIN 8-O-BETA-D-GLUCOPYRANOSIDE] | > 800 µg/mL | – | –
3 | Cc1cc(O)c2c(c1)C(=O)c1cc(O)cc(O)c1C2=O [EMODIN] | 5 µg/mL (≈ 18.5 µM) | 13 µM | Active
